Results taken from patent US6911432B2, “Drugs, foods or drinks with the use of algae-derived physiologically active substances” (priority 1997, dated 2005).
pIC50: −log10 of the molar value.

What was measured:
HL-60 cells [1] = experiment: antiproliferation assay, MTT method, absorbance at 590 nm; type: cell-based, human; conditions: HL-60
iNOS = iNOS expression by western blotting and RT-PCR; type: cell-based; conditions: protein level by western blotting, messenger RNA level by RT-PCR
Protocol: The confirmation was carried out at protein level by western blotting and at messenger RNA level by RT-PCR. That is, the compounds used in the present invention are useful for treating and preventing diseases that require inhibition of NO production by inhibiting expression of iNOS which is overexpressed by various factors to produce excess NO.

HCT116 = experiment: antiproliferation assay, MTT method; type: cell-based, human
Protocol: (§1) Each fraction was sterilized by filtration and its 10 μl portion was placed in a well of a 96 well microtiter plate. […] The cell morphology was observed under an optical microscope. […] The absorbance at 590 nm was measured to determine a cell proliferation rate. (2) A 50 mM solution of agarobiose, agarotetraose or agarohexaose obtained in Example 3-(1) was sterilized by filtration and diluted 2-, 4-, 8-, 16-, 32-, 64- and 128-folds with sterilized water. […] [table] The number in Table 3 represents the dilution rate of the dilution added to the group whose absorbance at 590 nm was less than one-half of that of the control group to which water was added. […] Then, for agarobiose, agarotetraose and agarohexaose, the concentrations required for 50% proliferation inhibitory rate (IC50) are calculated based on the change in the absorbance at 590 nm, and are shown in Table 4.

HeLa S3 = experiment: antiproliferation assay, MTT method; type: cell-based, human
Protocol: as §1

WiDr = experiment: antiproliferation assay, MTT method; type: cell-based, human
Protocol: as §1

T-47D = experiment: antiproliferation assay, MTT method; type: cell-based, human
Protocol: as §1

MKN45 = experiment: antiproliferation assay, MTT method; type: cell-based, human
Protocol: as §1

A549 = experiment: antiproliferation assay, MTT method; type: cell-based, human
Protocol: as §1

T24 = experiment: antiproliferation assay, MTT method; type: cell-based, human
Protocol: as §1

HepG2 = experiment: antiproliferation assay, MTT method; type: cell-based, human
Protocol: as §1

HT-29 = experiment: antiproliferation assay, MTT method; type: cell-based, human
Protocol: as §1

MCF7 = experiment: antiproliferation assay, MTT method; type: cell-based, human
Protocol: as §1

RPMI1788 = experiment: antiproliferation assay, MTT method; type: cell-based, human
Protocol: as §1

RAW264.7 = experiment: antiproliferation assay, MTT method; type: cell-based, mouse
Protocol: as §1

HL-60 cells [2] = experiment: viable cell count with Trypan Blue under a microscope; type: cell-based, human; conditions: final concentration 250 μM or 125 μM
Protocol: Agarobiose, agarotetraose, agarohexaose and agarooctaose (hereinafter, sometimes, these oligosuccharaides are referred to as agarooligosaccharides) obtained in Example 5 were dissolved in water at a concentration of 2.5 mM or 1.25 mM separately, and were sterilized by filtration. HL-60 cells were suspended in RPMI 1640 medium containing 10% fetal bovine serum at a concentration of 2.5×10^5 cells/4.5 ml and to this suspension was added 0.5 ml of each of the oligosaccharide solutions. The resultant mixture were incubated with 5% CO2 at 37° C. for 24 hours or 48 hours. A part of the cell culture was taken up, followed by addition of Trypan Blue thereto and observing under a microscope to count the number of viable cells.
That is, FIG. 14 illustrates the relation between the incubation time and the number of viable cells when HL-60 cells were cultured with addition of one of the oligosaccharides at the final concentration of 250 μM. FIG. 15 illustrates the relation between the incubation time and the number of viable cells when HL-60 cells were cultured with addition of one of the oligosaccharides at the final concentration of 125 μM. In FIGS. 14 and 15, the horizontal axes represent the incubation time (hrs.) and the vertical axes represent the number of viable cells (× 10^5/5 ml). The closed circle (●) represents the addition of water (control), the open diamond (⋄) represents the addition of agarobiose, the open circle (◯) represents the addition of agarotetraose, the open triangle (Δ) represents the addition of agarohexaose and the open square (□) represents the addition of agarooctaose.

HT-1080 = experiment: antiproliferation assay, MTT method; type: cell-based
Protocol: as §1

A-172 = experiment: antiproliferation assay, MTT method; type: cell-based
Protocol: as §1

[3] = read-out: IC50 (concentration required for 50% proliferation inhibitory rate)
[4] = dilution rate 1 corresponds to 5 mM in medium

## OC[C@H]1O[C@@H](O[C@H]2[C@H]3OC[C@@H]2O[C@@H](O[C@H]2[C@@H](O)[C@@H](CO)O[C@@H](O[C@H]4[C@H]5OC[C@@H]4O[C@@H](O[C@H]4[C@@H](O)[C@@H](CO)O[C@@H](O[C@H]6[C@H]7OC[C@@H]6OC(O)[C@H]7O)[C@@H]4O)[C@H]5O)[C@@H]2O)[C@H]3O)[C@H](O)[C@@H](O)[C@H]1O (mixture of isomers) [Agarohexaose, agarohexaose]
HL-60 cells [1]; 50 mM solution diluted 2- to 128-fold, dilution rate 1 corresponds to 5 mM in the cell culture medium
  dilution rate of the dilution added to the group whose absorbance at 590 nm was less than one-half of that of the control group: 64
HL-60 cells [1]; [3]
  pIC50: 4.11
iNOS
  inhibition of iNOS expression: inhibit this iNOS expression
HCT116; [4]
  dilution rate of the dilution added to the group whose absorbance at 590 nm was less than one-half of that of the control group: 32
HCT116; [3]
  pIC50: 3.87
HeLa S3; [4]
  dilution rate of the dilution added to the group whose absorbance at 590 nm was less than one-half of that of the control group: 16
HeLa S3; [3]
  pIC50: 3.48
WiDr; [4]
  dilution rate of the dilution added to the group whose absorbance at 590 nm was less than one-half of that of the control group: 16
WiDr; [3]
  pIC50: 3.48
T-47D; [4]
  dilution rate of the dilution added to the group whose absorbance at 590 nm was less than one-half of that of the control group: 16
T-47D; [3]
  pIC50: 3.80
MKN45; [4]
  dilution rate of the dilution added to the group whose absorbance at 590 nm was less than one-half of that of the control group: 16
MKN45; [3]
  pIC50: 3.78
A549; [4]
  dilution rate of the dilution added to the group whose absorbance at 590 nm was less than one-half of that of the control group: 16
A549; [3]
  pIC50: 3.55
T24; [4]
  dilution rate of the dilution added to the group whose absorbance at 590 nm was less than one-half of that of the control group: 8
T24; [3]
  pIC50: 3.44
HepG2; [4]
  dilution rate of the dilution added to the group whose absorbance at 590 nm was less than one-half of that of the control group: 16
HepG2; [3]
  pIC50: 3.37
HT-29; [4]
  dilution rate of the dilution added to the group whose absorbance at 590 nm was less than one-half of that of the control group: 32
HT-29; [3]
  pIC50: 3.84
MCF7; [4]
  dilution rate of the dilution added to the group whose absorbance at 590 nm was less than one-half of that of the control group: 16
MCF7; [3]
  pIC50: 3.62
RPMI1788; [4]
  dilution rate of the dilution added to the group whose absorbance at 590 nm was less than one-half of that of the control group: 128
RPMI1788; [3]
  pIC50: 4.66
RAW264.7; [4]
  dilution rate of the dilution added to the group whose absorbance at 590 nm was less than one-half of that of the control group: 32
RAW264.7; [3]
  pIC50: 3.96
HL-60 cells [2]
  apoptosis corpuscles: apoptosis corpuscles were observed
HL-60 cells [2]; 24 hours or 48 hours
  number of viable cells as compared with the group to which water was added: decreased
HT-1080; [4]
  dilution rate of the dilution added to the group whose absorbance at 590 nm was less than one-half of that of the control group: 16
HT-1080; [3]
  pIC50: 3.73
A-172; [4]
  dilution rate of the dilution added to the group whose absorbance at 590 nm was less than one-half of that of the control group: 16
A-172; [3]
  pIC50: 3.82
